Results: BindingDB's records for doi:10.1021/jm801395v (Universita Di Siena, 2009)

Legend:
Assay in all cases: Reverse Transcriptase Assay
[1] = target: T1, Gag-Pol polyprotein [588-1027,Y769I]/[588-1147,Y769I] (Human immunodeficiency virus 1, UniProt P04585, Y769I); conditions: pH 7.5; 37 °C
T1 construct: 588-1027; 588-1147
Method: (§1) The inhibition of the RNA-dependent DNA polymerase activity of the HIV-1 reverse transcriptase enzyme was measured using a primer extension assay. The substrate-incorporated radioactivity was quantitated by scintillation counting.

[2] = target: T2, Gag-Pol polyprotein [588-1027] (Human immunodeficiency virus type 1 group M subtype B (isolate HXB2), UniProt P04585); conditions: pH 7.5; 37 °C
T2 construct: 588-1027
Method: as §1

[3] = target: T3, Gag-Pol polyprotein [588-1027,Y776L]/[588-1147,Y776L] (Human immunodeficiency virus 1, UniProt P04585, Y776L)
T3 construct: 588-1027; 588-1147
Method: as §1

| Compound | Ki [1] [µM] | Ki [2] [µM] | Ki [3] [µM] |
| --- | --- | --- | --- |
| CCC1(c2ccc(COc3cccc(Cl)c3)cc2)Oc2cccnc2-n2cccc2C1=O (stereo not given) [8-[4-(3-chlorophenoxymethyl)phenyl]-8-ethyl-9-oxa-2,14-diazatricyclo[8.4.0.0^{2,6}]tetradeca-1(14),3,5,10,12-pentaen-7-one] | < 10 | – | – |
| CCC1(c2ccc(COc3cccc(Cl)c3)cc2)Oc2ccccc2-n2cccc2C1=O (stereo not given) [8-[4-(3-chlorophenoxymethyl)phenyl]-8-ethyl-9-oxa-2-azatricyclo[8.4.0.0^{2,6}]tetradeca-1(14),3,5,10,12-pentaen-7-one] | < 10 | 0.1 | – |
| CCC1(c2ccc(COc3ccccc3)cc2)Oc2cccnc2-n2cccc2C1=O (stereo not given) [8-ethyl-8-[4-(phenoxymethyl)phenyl]-9-oxa-2,14-diazatricyclo[8.4.0.0^{2,6}]tetradeca-1(14),3,5,10,12-pentaen-7-one] | < 10 | – | < 10 |
